# Earlier results in PubChem BioAssay AID1259409 (Chemical Carcinogenesis Research Information System (CCRIS), 2018).
# Test system: rodent chemically induced tumor inhibition, incidence and multiplicity
# Experiment: CCRIS tumor inhibitor studies
# Settings: Carcinogen: OCHRATOXIN A, 303-47-9, Route [Inhibitor]: ORAL, Species: RAT, Dose [Carcinogen]: 0.4 MG/KG BW 3X/WK FOR LIFETIME, Promoter: NONE
structure (smiles),measurement,setting,value
O=S(=O)(O)CCS,outcome,"Dose [Inhibitor]: 1 G/L IN DRINKING WATER FOR LIFETIME (STUDY DURATION: LIFETIME), Strain/Sex: DA/FEMALE, Target Tissue: Type of Lesion: URETHRA: TRANSITIONAL CELL CARCINOMA","0/40 (0%), 0/40 (0%), 0%, not significant"
same,outcome,"Dose [Inhibitor]: 1 G/L IN DRINKING WATER FOR LIFETIME (STUDY DURATION: LIFETIME), Strain/Sex: DA/FEMALE, Target Tissue: Type of Lesion: URINARY BLADDER: TRANSITIONAL CELL CARCINOMA","0/40 (0%), 0/40 (0%), 0%, not significant"
same,"tumour outcome (control, treated, inhibition, significance)","Dose [Inhibitor]: 1 G/L IN DRINKING WATER FOR LIFETIME (STUDY DURATION: LIFETIME), Strain/Sex: DA/MALE, Target Tissue: Type of Lesion: KIDNEY: TUBULAR CELL ADENOMA","1/20 (5%), 0/20 (0%), 100%, not significant"
same,"tumour outcome (control, treated, inhibition, significance)","Dose [Inhibitor]: 1 G/L IN DRINKING WATER FOR LIFETIME (STUDY DURATION: LIFETIME), Strain/Sex: DA/MALE, Target Tissue: Type of Lesion: KIDNEY: TUBULAR CELL CARCINOMA","6/20 (30%), 2/20 (40%), -33%, not significant"
same,outcome,"Dose [Inhibitor]: 1 G/L IN DRINKING WATER FOR LIFETIME (STUDY DURATION: LIFETIME), Strain/Sex: DA/MALE, Target Tissue: Type of Lesion: URETHRA: TRANSITIONAL CELL CARCINOMA","0/20 (0%), 0/20 (0%), 0%, not significant"
same,outcome,"Dose [Inhibitor]: 1 G/L IN DRINKING WATER FOR LIFETIME (STUDY DURATION: LIFETIME), Strain/Sex: DA/MALE, Target Tissue: Type of Lesion: URINARY BLADDER: TRANSITIONAL CELL PAPILLOMA","0/20 (0%), 0/20 (0%), 0%, not significant"
same,outcome,"Dose [Inhibitor]: 1 G/L IN DRINKING WATER FOR LIFETIME (STUDY DURATION: LIFETIME), Strain/Sex: LEWIS/FEMALE, Target Tissue: Type of Lesion: KIDNEY: TUBULAR CELL ADENOMA","0/20 (0%), 0/20 (0%), 0%, not significant"
same,outcome,"Dose [Inhibitor]: 1 G/L IN DRINKING WATER FOR LIFETIME (STUDY DURATION: LIFETIME), Strain/Sex: LEWIS/FEMALE, Target Tissue: Type of Lesion: URETHRA: TRANSITIONAL CELL CARCINOMA","0/20 (0%), 0/20 (0%), 0%, not significant"
same,outcome,"Dose [Inhibitor]: 1 G/L IN DRINKING WATER FOR LIFETIME (STUDY DURATION: LIFETIME), Strain/Sex: LEWIS/MALE, Target Tissue: Type of Lesion: KIDNEY: TUBULAR CELL ADENOMA","0/20 (0%), 0/20 (0%), 0%, not significant"
same,"tumour outcome (control, treated, inhibition, significance)","Dose [Inhibitor]: 1 G/L IN DRINKING WATER FOR LIFETIME (STUDY DURATION: LIFETIME), Strain/Sex: LEWIS/MALE, Target Tissue: Type of Lesion: KIDNEY: TUBULAR CELL CARCINOMA","2/20 (10%), 1/20 (5%), 50%, not significant"
same,outcome,"Dose [Inhibitor]: 1 G/L IN DRINKING WATER FOR LIFETIME (STUDY DURATION: LIFETIME), Strain/Sex: LEWIS/MALE, Target Tissue: Type of Lesion: URETHRA: TRANSITIONAL CELL CARCINOMA","0/20 (0%), 0/20 (0%), 0%, not significant"
same,outcome,"Dose [Inhibitor]: 1 G/L IN DRINKING WATER FOR LIFETIME (STUDY DURATION: LIFETIME), Strain/Sex: LEWIS/MALE, Target Tissue: Type of Lesion: URINARY BLADDER: TRANSITIONAL CELL CARCINOMA","0/20 (0%), 0/20 (0%), 0%, not significant"
same,outcome,"Dose [Inhibitor]: 1 G/L IN DRINKING WATER FOR LIFETIME (STUDY DURATION: LIFETIME), Strain/Sex: LEWIS/MALE, Target Tissue: Type of Lesion: URINARY BLADDER: TRANSITIONAL CELL PAPILLOMA","0/20 (0%), 0/20 (0%), 0%, not significant"
same,outcome,"Dose [Inhibitor]: 1 G/LITER IN DRINKING WATER FOR LIFETIME (STUDY DURATION: LIFETIME), Strain/Sex: DA/FEMALE, Target Tissue: Type of Lesion: KIDNEY: TUBULAR CELL ADENOMA","0/40 (0%), 0/40 (0%), 0%, not significant"
same,outcome,"Dose [Inhibitor]: 1 G/LITER IN DRINKING WATER FOR LIFETIME (STUDY DURATION: LIFETIME), Strain/Sex: DA/FEMALE, Target Tissue: Type of Lesion: KIDNEY: TUBULAR CELL CARCINOMA","0/40 (0%), 0/40 (0%), 0%, not significant"
